The values below come from patent US12484580B2, “Use of alkoxypyrazoles as nitrification inhibitors” (BASF SE, priority 2018, dated 2025).

Series [1] is described as follows: volatility of prior-art nitrification inhibitor. Format: physicochemical. The following applies: stated as disadvantageous for long-term applications.
For series [2], the system named is nitrification (soil microbial biomass). In words: inhibition of nitrification in soil incubation test (ammonium and nitrate content after 0 and 14 days). The following applies: compound at 1% of nitrogen N, 100 g soil, 10 mg ammoniumsulfate-N, 20° C., best obtained NI value. As to the method:
The compounds of the invention have been tested as follows in terms of the inhibition of nitrification: 100 g soil is filled into 500 ml plastic bottles (e.g. soil sampled from the field) and is moistened to 50% water holding capacity. The soil is incubated at 20° C. for two weeks to activate the microbial biomass. 1 ml test solution, containing the compound in the appropriate concentration (usually 0.3 or 1% of nitrogen N), or DMSO and 10 mg nitrogen in the form of ammoniumsulfate-N is added to the soil and everything mixed well. Bottles are capped but loosely to allow air exchange. The bottles are then incubated at 20° C. for 0 and 14 days. For analysis, 300 ml of a 1% K2SO4-solution is added to the bottle containing the soil and shaken for 2 hours in a horizontal shaker at 150 rpm. Then the whole solution is filtered through a filter (Macherey-Nagel Filter MN 807 ¼). Ammonium and nitrate content is then analyzed in the filtrate in an autoanalyzer at 550 nm (Merck, AA11). The inhibition (NI @ a specified concentration) is calculated as follows: [formula]

For the compound `CCOc1cc(C)[nH]n1` [3-ethoxy-5-methylpyrazole], the volatility entry in series [1] is recorded as “high volatility”.

For the compound `CCOc1[nH]nc(C)c1Cl` [compound 9], the “NI* @ 1%” value in series [2] was 22.0.
